Columns and labels:
[1] = tested on: C57BL/6J female mice; experiment: Survival of mice after whole body irradiation, SW033291 5 mg/kg IP; format: in vivo, mouse; conditions: for number of mice surviving: 9 Gy
[2] = tested on: C57BL/6J mice; experiment: Competitive transplant of marrow from treated CD45.2 donor mice; format: in vivo, mouse; conditions: donor 5 mg/kg IP daily for 3 doses; weeks 12 and 16
Method: On day 3 mice were sacrificed, marrow flushed and mixed at a 1:1 ratio with vehicle treated CD45.1 marrow. 2 million whole BM cells were injected into the tail vein of lethally irradiated CD45.1 mice and percent chimerism measured via flow cytometry at weeks 8, 12, 16.

[3] = tested on: cell numbers in a cell culture assay; experiment: Toxicity in cell culture assay (decrease of cell numbers); format: cell-based; conditions: concentration needed to decrease cell numbers
Method: (§1) Time to inhibition refers to the time needed to inhibit the generation of NADH by 15-PGDH from the moment with drug is added into the reaction mix. Delta Tm refers to the shift in melting temperature of recombinant 15-PGDH in the presence of drug (with cofactor NADH also present). Concentration of Full Cell Line Reporter Induction refers to the concentration of drug that needs to be added to reporter cell line to achieve maximal induction of the 15-PGDH-luciferase gene fusion reporter cassette, as measured by luciferase assays. Hepatocyte stability refers to the half-life of compound in the presence of hepatocytes in culture. Toxicity refers to the concentration of compound needed to decrease cell numbers in a cell culture assay.

[4] = 21 day toxicity study in FVB mice, daily weights; format: in vivo, mouse; conditions: 5 mg/kg IP twice daily for 21 days
[5] = Hepatocyte stability; format: in vitro ADME; conditions: in words
Method: as §1

[6] = tested on: mice; experiment: Homing of CFSE labeled donor bone marrow cells in lethally irradiated mice; format: in vivo, mouse; conditions: 10 mg/kg IP
Method: Drugs are administered following radiation, following the transplant, and again at 8 hours after the transplant.

[7] = tested on: CXCL12; experiment: Gene expression in bone marrow cells of treated mice: CXCL12; format: in vivo, mouse; conditions: 10 mg/kg IP twice daily, 5 doses
Method: (§2) 2 hours following the last dose bone marrow is harvested and sorted into SKL marked cells that are hematopoietic stem cell enriched and into CD45(−) cells that are bone marrow stroma cells. RNA was extracted and gene expression determined relative to levels in mice injected with vehicle control.

[8] = tested on: SCF; experiment: Gene expression in bone marrow cells of treated mice: SCF; format: in vivo, mouse; conditions: 10 mg/kg IP twice daily, 5 doses
Method: as §2

[9] = CD45(−) bone marrow stromal cells

Q: With CCCC[S+]([O-])c1sc2nc(-c3cccs3)cc(-c3ccccc3)c2c1N (stereo not shown) [SW033291, 2-(butylsulfinyl)-4-phenyl-6-(thiophen-2-yl)thieno[2,3-b]pyridin-3-amine] as the molecule, how does the “longer survival on average than vehicle control” value ([1]; 11Gy, any of the three dosing schedules) read?
A: Its value is 1 to 2 days.

Q: What about the “longer survival than vehicle control” value ([1]; 11Gy, daily for 7 doses) of the same molecule?
A: The value was 48 h.

Q: What about the “number of mice surviving” value ([1]; Day 0, daily for 7 doses) of the same molecule?
A: Its value is 3.

Q: And the “number of mice surviving” value ([1]; Day 5, daily for 7 doses)?
A: The value was 3.

Q: And the “number of mice surviving” value ([1]; Day 6, daily for 7 doses)?
A: Its value is 3.

Q: And the “number of mice surviving” value ([1]; Day 7, daily for 7 doses)?
A: The value was 3.

Q: What about the “number of mice surviving” value ([1]; Day 8, daily for 7 doses) of the same molecule?
A: The value was 3.

Q: What about the “number of mice surviving” value ([1]; Day 9, daily for 7 doses) of the same molecule?
A: The value was 3.

Q: And the “number of mice surviving” value ([1]; Day 10, daily for 7 doses)?
A: The value was 3.

Q: What about the “number of mice surviving” value ([1]; Day 12, daily for 7 doses) of the same molecule?
A: Its value is 2.

Q: What about the “number of mice surviving” value ([1]; Day 13, daily for 7 doses) of the same molecule?
A: Its value is 2.

Q: And the “number of mice surviving” value ([1]; Day 14, daily for 7 doses)?
A: Its value is 1.

Q: And the “number of mice surviving” value ([1]; Day 15, daily for 7 doses)?
A: Its value is 0.

Q: And the appearance of mice ([1]; Day 25, 7 Gy, wrapped cell reads Looks Healthy)?
A: The appearance of mice was “Looks”.

Q: And the “percent blood chimerism of CD45.2 marked cells” value [2]?
A: The value was “significantly increased”.

Q: And the Toxicity [3]?
A: The Toxicity was greater than 10 µM.

Q: What about the mouse weight [4] of the same molecule?
A: Its mouse weight is “no evidence for SW033291 reducing mouse weight”.

Q: What about the Hepatocyte stability [5] of the same molecule?
A: The Hepatocyte stability was “Stable > couple hrs”.

Q: And the “increase of homed cells in recipient bone marrow” value ([6]; FIG. 88)?
A: Its value is 3 fold.

Q: And the “increase of homed cells in recipient bone marrow” value ([6]; FIG. 90)?
A: The value was 2 fold.

Q: What about the “increase of homed donor cells in recipient bone marrow” value ([6]; FIG. 140) of the same molecule?
A: The value was “approximately 2.5 fold”.

Q: And the “induction of CXCL12” value [7, 9]?
A: Its value is “greater than 4 fold”.

Q: And the “induction in RNA expression of CXCL12” value ([7]; bone marrow SKL cells)?
A: Its value is 3 fold.

Q: What about the “induction of SCF” value [8, 9] of the same molecule?
A: Its value is “greater than 4 fold”.

Q: What about the “induction in RNA expression of SCF” value ([8]; bone marrow SKL cells) of the same molecule?
A: The value was 3 fold.
